# Assay results from patent US12173012B2, “Indolocarbazole analogs of staurosporine and methods of synthesis thereof” (priority 2020, dated 2024).
# Where two headings read alike, the source gives them in different places.
# What was measured:
# [1] = test system: MDA-MB-231 breast cancer cell line; settings: read-out: MDA-MB-231 IC50; MDA-MB-231 cells, 72 h incubation, MTS readout
# [2] = test system: HMLE breast cancer cell line; settings: for IC50: read-out: HMLE IC50
# [3] = test system: MDA-MB-231 breast cancer cell line; experiment: cells; settings: Homo sapiens, MDA-MB-231, 72 h, read-out: MDA-MB-231 IC50
smiles,measurement,setting,value
"CN[C@@H]1C[C@H]2O[C@@](C)([C@@H]1OC)n1c3ccc(O)cc3c3c4c(c5c6ccccc6n2c5c31)C(=O)NC4 [Compound 13, 9-OH staurosporine]",IC50,[1],2 nM
same,fold less active/potent than staurosporine against HMLE cell line,[2],5.6 fold
same,IC50,[2],27.5 nM
"CN[C@@H]1C[C@H]2O[C@@](C)([C@@H]1OC)n1c3cc(O)ccc3c3c4c(c5c6ccccc6n2c5c31)C(=O)NC4 [Compound 14, 10-OH staurosporine]",IC50,[1],3.4 nM
same,fold less active/potent than staurosporine against HMLE cell line,[2],12.0 fold
same,IC50,[2],58.7 nM
CN[C@@H]1C[C@H]2O[C@@](C)([C@@H]1OC)n1c3ccccc3c3c4c(c5c6ccccc6n2c5c31)C(=O)NC4 [Staurosporine],IC50,[3],2.5 nM
